From US20050089554A1, “Apparatus and method for enhancing transdermal drug delivery” (priority 2003, published 2005)

Assays:
[1] = Urinary excretion of 3H desmopressin injected intravenously (previous studies); assay type: in vivo; conditions: hairless, urine, iv, total radioactivity, injected intravenously in HGPs, read-out: fraction excreted in urine
Protocol: (§1) Following application of the microprojection solid film system in HGPs, the gel pack was placed on top of the microprojection member, as illustrated in FIG. 12. At 1 h and 24 h after application, three (3) systems from each group of HGPs were removed and the residual drug washed form the skin. The amount of the drug penetrated during these times intervals was determined by measuring urinary excretion of tritium (previous studies had shown that in HGPs, 71% of ^3H desmopressin injected intravenously is excreted in urine).

[2] = Desmopressin flux through skin (microprojection solid film system and gel pack), from urinary excretion of tritium; assay type: in vivo, HGPs; conditions: 5 mg tritiated desmopressin solid film, 2% HEC gel pack; 1 h and 24 h; FIG. 20
Protocol: An experiment was conducted to test the concept of the hydratable system using the peptide desmopressin. A system similar to that presented in Example 2 was provided.
The system included a 2 cm^2 solid film containing 5 mg tritiated desmopressin. The thin film was prepared by casting a 20 mil thick aqueous solution comprised of 10 wt. % HPMC 2910 USP and 20 wt. % glycerol. The film was dried and punched into 2 cm^2 discs. Each disc was imbibed with a 20 wt. % ^3H desmopressin solution and subsequently dried. The solid film was subsequently disposed proximate the top surface of the microprojection member. The gel pack or gel reservoir contained 0.120 mL of 2% HEC (NATROSOL® 250 HHX) in water.
as §1

## NC(=O)CC[C@@H]1NC(=O)[C@H](Cc2ccccc2)NC(=O)[C@H](Cc2ccc(O)cc2)NC(=O)CCSSC[C@@H](C(=O)N2CCC[C@H]2C(=O)N[C@H](CCCN=C(N)N)C(=O)NCC(N)=O)NC(=O)[C@H](CC(N)=O)NC1=O [desmopressin]
[1]
  dose excreted: 71%
[2]
  flux through the skin, time dependence: time dependant flux
